{
  "source": "patent US20110245283A1",
  "about": "“Methods for predicting the response to statins” (priority 2009, published 2011)",
  "key": {"[1]": {"system": "LDL", "test": "Logistic regression models of attaining LDL goal: odds ratios for concurrent or prior drug doses", "type": "in vivo, patients", "conditions": "for OR: per dose increment", "experimental": "G. Covariates for the multivariate model—The following list includes the predictors one or more of which may be tested in the multivariate models. • 1. AGE: (expressed in units of 10 years) at time that the new statin prescription was released • 2. GENDER, E. G., MALE: 1=yes, 0=no • 3. BMI (kg/M^2): last value before release date • 4. HBA1C (hemoglobin Alc): last value before release date • 5. PLDL: preceding LDL level expressed in e.g. 10 mg/dl units • 6. Statins • a. PLOVA: prior daily dose of lovastatin expressed in e.g. 10 mg units • b. […] For additional drugs: • a. AMIODOSE: amiodarone dose in mg/day • b. CARBDOSE: carbemazepine dose in mg/day • c. PIOGDOSE: pioglitazone dose expressed as number of 15 mg doses per day • d. […] METFDOSE: metformin dose expressed as number of 1000 mg doses per day • f. PHENDOSE: phenyloin dose in mg/day • g. RISPDOSE: risperidone dose in mg/day • h. ROSIDOSE: rosiglitazone dose in mg/day • i.\nBody mass index (BMI) was chosen as a covariate of statin response because obese patients tend to consume a diet high in cholesterol. It was hypothesized that they would respond less well to statins because their hypercholesterolemia was more likely to be mediated by dietary indiscretion than excessive LDL synthesis. […] Metformin and the thiazolidinediones were chosen because they reduce LDL levels in diabetic patients through mechanisms that may or may not be affected by concurrent statin treatment. The remaining non-statin drugs were chosen because they are commonly used drugs that potentiate the effect of statins. They were selected by reviewing the official on-line VA pharmaceutical reference (Micromedex®) for major interactions mediated by impaired statin metabolism. […] The daily dose of the non-statin drug was calculated by the method described in Section B.\nH. Assembling the predictor file—The patient identifier was used to link the new statin prescription type and dose, the preceding LDL above goal, and the type and dose of the previous statin (if any) with the patient's most recent HbA1c, most recent BMI, and the daily doses of 9 drugs with major statin interactions that were active at the time the new prescription was released.\nThe dependent variable was attainment of goal (LDL <100 mg/dl). […] Step selections were based upon the maximal likelihood method with α<0.15 to enter and ≧0.15 to remove."}, "[2]": {"conditions": "cited from earlier work"}, "[3]": {"conditions": "odds of goal, Lovastatin 20 mg [B] model (excludes HbA1c; n = 733)"}, "[4]": {"conditions": "odds of goal LDL <100 mg/dl, Lovastatin 20 mg [A] model (includes HbA1c; n = 595)"}, "[5]": {"conditions": "odds of goal, Lovastatin 40 mg model (n = 764)"}, "[6]": {"conditions": "odds of goal, Simvastatin 10 mg [A] model (no previous treatment; n = 172)"}, "[7]": {"conditions": "odds of goal, Simvastatin 10 mg [C] model (excludes BMI; n = 219)"}, "[8]": {"conditions": "odds of goal, Simvastatin 40 mg model (n = 698)"}},
  "note": "Where two headings read alike, the source gives them in different places.",
  "data": [
    {"compound": "CCc1ccc(CCOc2ccc(CC3SC(=O)NC3=O)cc2)nc1", "note": "(stereo not drawn) [Pioglitazone, pioglitazone]", "values": [
      {"measurement": "OR", "setting": "[1]; [3]", "result": 2.06}
    ]},
    {"compound": "CN(C)C(=N)N=C(N)N", "note": "[Metformin, metformin]", "values": [
      {"measurement": "Odds ratio for concurrent treatment", "setting": "[1]; for every 1,000 mg daily, 2 models", "result": 1.3},
      {"measurement": "OR", "setting": "[1]; [4]", "result": 1.30},
      {"measurement": "OR", "setting": "[1]; [3]", "result": 1.26},
      {"measurement": "OR", "setting": "[1]; [5]", "result": 1.22},
      {"measurement": "OR", "setting": "[1]; [6]", "result": 1.84},
      {"measurement": "OR", "setting": "[1]; [7]", "result": 1.98},
      {"measurement": "OR", "setting": "[1]; [8]", "result": 1.31},
      {"measurement": "Increase of odds of reaching goal", "setting": "[1]; patient taking metformin, simvastatin 40 mg model", "result": 30, "unit": "%"}
    ]},
    {"compound": "CC(C)c1nc(CN(C)C(=O)N[C@H](C(=O)N[C@@H](Cc2ccccc2)C[C@H](O)[C@H](Cc2ccccc2)NC(=O)OCc2cncs2)C(C)C)cs1", "note": "[Rotinavir]", "values": [
      {"measurement": "Increased risk of toxicity or reduced statin effectiveness", "setting": "[2]; with Atorva", "result": "(+)"},
      {"measurement": "Severity of the interaction", "setting": "[2]; with Atorva", "result": 2},
      {"measurement": "Increased risk of toxicity or reduced statin effectiveness", "setting": "[2]; with Lova", "result": "(+)"},
      {"measurement": "Severity of the interaction", "setting": "[2]; with Lova", "result": 3},
      {"measurement": "Increased risk of toxicity or reduced statin effectiveness", "setting": "[2]; with Simva", "result": "(+)"},
      {"measurement": "Severity of the interaction", "setting": "[2]; with Simva", "result": 3}
    ]},
    {"compound": "O=C(O)c1cccnc1", "note": "[Niacin]", "values": [
      {"measurement": "Increased risk of toxicity or reduced statin effectiveness", "setting": "[2]; with Atorva", "result": "(+)"},
      {"measurement": "Severity of the interaction", "setting": "[2]; with Atorva", "result": 3},
      {"measurement": "Increased risk of toxicity or reduced statin effectiveness", "setting": "[2]; with Fluva", "result": "(+)"},
      {"measurement": "Severity of the interaction", "setting": "[2]; with Fluva", "result": 2},
      {"measurement": "Increased risk of toxicity or reduced statin effectiveness", "setting": "[2]; with Lova", "result": "(+)"},
      {"measurement": "Severity of the interaction", "setting": "[2]; with Lova", "result": 3},
      {"measurement": "Increased risk of toxicity or reduced statin effectiveness", "setting": "[2]; with Prava", "result": "(+)"},
      {"measurement": "Severity of the interaction", "setting": "[2]; with Prava", "result": 2},
      {"measurement": "Increased risk of toxicity or reduced statin effectiveness", "setting": "[2]; with Rosuva", "result": "(+)"},
      {"measurement": "Severity of the interaction", "setting": "[2]; with Rosuva", "result": 3},
      {"measurement": "Increased risk of toxicity or reduced statin effectiveness", "setting": "[2]; with Simva", "result": "(+)"},
      {"measurement": "Severity of the interaction", "setting": "[2]; with Simva", "result": 3}
    ]},
    {"compound": "Magaldrate", "values": [
      {"measurement": "Severity of the interaction", "setting": "[2]; with Rosuva", "result": 2}
    ]},
    {"compound": "Cc1nc2n(c(=O)c1CCN1CCC(c3noc4cc(F)ccc34)CC1)CCCC2", "note": "[Risperidone]", "values": [
      {"measurement": "Increased risk of toxicity or reduced statin effectiveness", "setting": "[2]; with Simva", "result": "(+)"},
      {"measurement": "Severity of the interaction", "setting": "[2]; with Simva", "result": 3}
    ]},
    {"compound": "COc1ccc([C@@H]2Sc3ccccc3N(CCN(C)C)C(=O)[C@@H]2OC(C)=O)cc1", "note": "[Diltiazem, diltiazem]", "values": [
      {"measurement": "Increase of odds of reaching goal", "setting": "[1]; for every 120 mg per day diltiazem, lovastatin 20 mg model", "result": 70, "unit": "%"},
      {"measurement": "OR", "setting": "[1]; [4]", "result": 1.44},
      {"measurement": "OR", "setting": "[1]; [3]", "result": 1.69},
      {"measurement": "OR", "setting": "[1]; [5]", "result": 1.35},
      {"measurement": "OR", "setting": "[1]; [6]", "result": 1.78},
      {"measurement": "OR", "setting": "[1]; [7]", "result": 1.76},
      {"measurement": "OR", "setting": "[1]; [8]", "result": 1.70}
    ]},
    {"compound": "CC(C)(Oc1ccc(C2CC2(Cl)Cl)cc1)C(=O)O", "note": "(stereo not drawn) [Ciprofibrate]", "values": [
      {"measurement": "Increased risk of toxicity or reduced statin effectiveness", "setting": "[2]; with Atorva", "result": "(+)"},
      {"measurement": "Severity of the interaction", "setting": "[2]; with Atorva", "result": 3},
      {"measurement": "Increased risk of toxicity or reduced statin effectiveness", "setting": "[2]; with Fluva", "result": "(+)"},
      {"measurement": "Severity of the interaction", "setting": "[2]; with Fluva", "result": 3},
      {"measurement": "Increased risk of toxicity or reduced statin effectiveness", "setting": "[2]; with Lova", "result": "(+)"},
      {"measurement": "Severity of the interaction", "setting": "[2]; with Lova", "result": 3},
      {"measurement": "Increased risk of toxicity or reduced statin effectiveness", "setting": "[2]; with Prava", "result": "(+)"},
      {"measurement": "Severity of the interaction", "setting": "[2]; with Prava", "result": 3},
      {"measurement": "Increased risk of toxicity or reduced statin effectiveness", "setting": "[2]; with Simva", "result": "(+)"},
      {"measurement": "Severity of the interaction", "setting": "[2]; with Simva", "result": 3}
    ]},
    {"compound": "COc1ccc2[nH]c([S+]([O-])Cc3ncc(C)c(OC)c3C)nc2c1", "note": "(stereo not drawn) [Omeprazole]", "values": [
      {"measurement": "Increased risk of toxicity or reduced statin effectiveness", "setting": "[2]; with Fluva", "result": "(+)"},
      {"measurement": "Severity of the interaction", "setting": "[2]; with Fluva", "result": 1}
    ]},
    {"compound": "NC(=O)N1c2ccccc2C=Cc2ccccc21", "note": "[Carbamazepine]", "values": [
      {"measurement": "Severity of the interaction", "setting": "[2]; with Simva", "result": 2}
    ]},
    {"compound": "CCC[C@@]1(CCc2ccccc2)CC(O)=C([C@H](CC)c2cccc(NS(=O)(=O)c3ccc(C(F)(F)F)cn3)c2)C(=O)O1", "note": "[Tipranavir]", "values": [
      {"measurement": "Increased risk of toxicity or reduced statin effectiveness", "setting": "[2]; with Lova", "result": "(+)"},
      {"measurement": "Severity of the interaction", "setting": "[2]; with Lova", "result": 3},
      {"measurement": "Increased risk of toxicity or reduced statin effectiveness", "setting": "[2]; with Simva", "result": "(+)"},
      {"measurement": "Severity of the interaction", "setting": "[2]; with Simva", "result": 3}
    ]},
    {"compound": "Pectin", "values": [
      {"measurement": "Severity of the interaction", "setting": "[2]; with Atorva", "result": 2},
      {"measurement": "Severity of the interaction", "setting": "[2]; with Fluva", "result": 2},
      {"measurement": "Severity of the interaction", "setting": "[2]; with Lova", "result": 2},
      {"measurement": "Severity of the interaction", "setting": "[2]; with Prava", "result": 2},
      {"measurement": "Severity of the interaction", "setting": "[2]; with Rosuva", "result": 2},
      {"measurement": "Severity of the interaction", "setting": "[2]; with Simva", "result": 2}
    ]}
  ]
}
